Paper PMC9571063 (Molecules, 2022)

Legend:
BRAF(V600E) = biological target: T1, BRAF(V600E) (Homo sapiens, UniProt P15056, V600E); experiment: KINOMEscan; format: binding; settings: read-out: Percent Control
T1 construct: purchased Eurofins DiscoverX KINOMEscan (scanMAX 468)

CSNK1A1 = biological target: T2, CSNK1A1 (Homo sapiens, UniProt P48729); experiment: KINOMEscan; format: binding; settings: read-out: Percent Control
T2 construct: purchased Eurofins DiscoverX KINOMEscan (scanMAX 468)

EPHA1 = biological target: T3, EPHA1 (Homo sapiens, UniProt P21709); experiment: KINOMEscan; format: binding; settings: read-out: Percent Control
T3 construct: purchased Eurofins DiscoverX KINOMEscan (scanMAX 468)

EPHA5 = biological target: T4, EPHA5 (Homo sapiens, UniProt P54756); experiment: KINOMEscan; format: binding; settings: read-out: Percent Control
T4 construct: purchased Eurofins DiscoverX KINOMEscan (scanMAX 468)

ERK3 = biological target: T5, ERK3 (Homo sapiens, UniProt Q16659); experiment: KINOMEscan; format: binding; settings: read-out: Percent Control
T5 construct: purchased Eurofins DiscoverX KINOMEscan (scanMAX 468)
T5 sequence (Q16659 whole entry): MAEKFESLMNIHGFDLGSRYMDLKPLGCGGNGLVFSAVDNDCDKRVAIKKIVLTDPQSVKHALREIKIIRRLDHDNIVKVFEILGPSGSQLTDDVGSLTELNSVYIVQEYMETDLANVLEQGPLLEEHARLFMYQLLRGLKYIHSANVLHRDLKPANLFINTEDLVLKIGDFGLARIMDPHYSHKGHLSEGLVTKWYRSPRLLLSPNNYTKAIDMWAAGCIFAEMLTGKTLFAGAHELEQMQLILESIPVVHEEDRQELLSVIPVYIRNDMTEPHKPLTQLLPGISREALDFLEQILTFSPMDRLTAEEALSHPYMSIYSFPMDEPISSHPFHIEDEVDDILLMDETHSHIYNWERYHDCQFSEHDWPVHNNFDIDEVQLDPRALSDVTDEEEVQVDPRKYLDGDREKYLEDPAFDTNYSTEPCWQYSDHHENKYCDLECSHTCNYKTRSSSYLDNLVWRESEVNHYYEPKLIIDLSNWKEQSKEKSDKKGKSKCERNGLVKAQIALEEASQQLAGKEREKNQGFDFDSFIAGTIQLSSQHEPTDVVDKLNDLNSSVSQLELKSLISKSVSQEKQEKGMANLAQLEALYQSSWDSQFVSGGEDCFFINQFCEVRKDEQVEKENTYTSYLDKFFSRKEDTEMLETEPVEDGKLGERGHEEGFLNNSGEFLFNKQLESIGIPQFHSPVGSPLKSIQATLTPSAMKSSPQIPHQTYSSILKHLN

NEK1 = biological target: T6, NEK1 (Homo sapiens, UniProt Q96PY6); experiment: KINOMEscan; format: binding; settings: read-out: Percent Control
T6 construct: purchased Eurofins DiscoverX KINOMEscan (scanMAX 468)
T6 sequence (Q96PY6 whole entry): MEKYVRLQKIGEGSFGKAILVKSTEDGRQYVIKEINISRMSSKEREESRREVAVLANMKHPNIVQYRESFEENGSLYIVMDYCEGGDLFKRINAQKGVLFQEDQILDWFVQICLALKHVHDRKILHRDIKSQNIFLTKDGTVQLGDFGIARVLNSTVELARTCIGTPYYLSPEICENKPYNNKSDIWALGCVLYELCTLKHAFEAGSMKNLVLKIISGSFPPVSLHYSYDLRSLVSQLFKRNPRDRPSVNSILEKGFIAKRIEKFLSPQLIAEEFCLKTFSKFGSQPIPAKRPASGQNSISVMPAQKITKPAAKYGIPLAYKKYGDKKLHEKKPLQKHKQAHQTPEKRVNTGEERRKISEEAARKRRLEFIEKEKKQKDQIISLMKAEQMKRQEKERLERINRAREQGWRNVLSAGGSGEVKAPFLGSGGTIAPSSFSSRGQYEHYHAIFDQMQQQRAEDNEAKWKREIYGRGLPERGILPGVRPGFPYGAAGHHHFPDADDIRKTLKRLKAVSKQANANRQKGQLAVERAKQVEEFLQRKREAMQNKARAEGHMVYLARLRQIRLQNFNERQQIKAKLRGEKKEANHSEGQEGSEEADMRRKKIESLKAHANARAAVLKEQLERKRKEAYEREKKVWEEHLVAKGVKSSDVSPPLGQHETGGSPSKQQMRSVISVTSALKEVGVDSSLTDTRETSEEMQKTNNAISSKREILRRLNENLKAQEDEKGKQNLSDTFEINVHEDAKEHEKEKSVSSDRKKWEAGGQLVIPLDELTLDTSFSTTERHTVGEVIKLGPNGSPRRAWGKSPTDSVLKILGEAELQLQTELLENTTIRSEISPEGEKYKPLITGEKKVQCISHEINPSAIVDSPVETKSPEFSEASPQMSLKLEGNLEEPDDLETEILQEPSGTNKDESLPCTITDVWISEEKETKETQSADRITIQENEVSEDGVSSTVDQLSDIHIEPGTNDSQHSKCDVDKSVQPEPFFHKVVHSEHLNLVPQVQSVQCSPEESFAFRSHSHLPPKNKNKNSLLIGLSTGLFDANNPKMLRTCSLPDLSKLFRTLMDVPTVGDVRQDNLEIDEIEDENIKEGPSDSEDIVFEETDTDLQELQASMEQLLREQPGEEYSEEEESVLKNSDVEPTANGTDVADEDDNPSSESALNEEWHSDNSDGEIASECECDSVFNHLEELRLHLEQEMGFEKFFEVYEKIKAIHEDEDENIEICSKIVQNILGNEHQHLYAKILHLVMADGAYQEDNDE

PIM2 = biological target: T7, PIM2 (Homo sapiens, UniProt Q9P1W9); experiment: KINOMEscan; format: binding; settings: read-out: Percent Control
T7 construct: purchased Eurofins DiscoverX KINOMEscan (scanMAX 468)
T7 sequence (Q9P1W9 whole entry): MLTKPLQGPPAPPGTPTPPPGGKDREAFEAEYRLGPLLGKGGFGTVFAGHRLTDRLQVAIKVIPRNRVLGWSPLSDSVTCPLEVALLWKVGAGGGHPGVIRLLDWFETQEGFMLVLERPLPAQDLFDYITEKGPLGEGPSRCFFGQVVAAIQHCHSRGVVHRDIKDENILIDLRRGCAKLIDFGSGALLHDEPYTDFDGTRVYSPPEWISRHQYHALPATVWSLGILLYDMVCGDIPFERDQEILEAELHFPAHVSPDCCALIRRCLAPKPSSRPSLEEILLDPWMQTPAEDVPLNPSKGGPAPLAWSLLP

RET(V804M) = biological target: T8, RET(V804M) (Homo sapiens, UniProt P07949, V804M); experiment: KINOMEscan; format: binding; settings: read-out: Percent Control
T8 construct: purchased Eurofins DiscoverX KINOMEscan (scanMAX 468)
T8 sequence (P07949 29-1114 V804M): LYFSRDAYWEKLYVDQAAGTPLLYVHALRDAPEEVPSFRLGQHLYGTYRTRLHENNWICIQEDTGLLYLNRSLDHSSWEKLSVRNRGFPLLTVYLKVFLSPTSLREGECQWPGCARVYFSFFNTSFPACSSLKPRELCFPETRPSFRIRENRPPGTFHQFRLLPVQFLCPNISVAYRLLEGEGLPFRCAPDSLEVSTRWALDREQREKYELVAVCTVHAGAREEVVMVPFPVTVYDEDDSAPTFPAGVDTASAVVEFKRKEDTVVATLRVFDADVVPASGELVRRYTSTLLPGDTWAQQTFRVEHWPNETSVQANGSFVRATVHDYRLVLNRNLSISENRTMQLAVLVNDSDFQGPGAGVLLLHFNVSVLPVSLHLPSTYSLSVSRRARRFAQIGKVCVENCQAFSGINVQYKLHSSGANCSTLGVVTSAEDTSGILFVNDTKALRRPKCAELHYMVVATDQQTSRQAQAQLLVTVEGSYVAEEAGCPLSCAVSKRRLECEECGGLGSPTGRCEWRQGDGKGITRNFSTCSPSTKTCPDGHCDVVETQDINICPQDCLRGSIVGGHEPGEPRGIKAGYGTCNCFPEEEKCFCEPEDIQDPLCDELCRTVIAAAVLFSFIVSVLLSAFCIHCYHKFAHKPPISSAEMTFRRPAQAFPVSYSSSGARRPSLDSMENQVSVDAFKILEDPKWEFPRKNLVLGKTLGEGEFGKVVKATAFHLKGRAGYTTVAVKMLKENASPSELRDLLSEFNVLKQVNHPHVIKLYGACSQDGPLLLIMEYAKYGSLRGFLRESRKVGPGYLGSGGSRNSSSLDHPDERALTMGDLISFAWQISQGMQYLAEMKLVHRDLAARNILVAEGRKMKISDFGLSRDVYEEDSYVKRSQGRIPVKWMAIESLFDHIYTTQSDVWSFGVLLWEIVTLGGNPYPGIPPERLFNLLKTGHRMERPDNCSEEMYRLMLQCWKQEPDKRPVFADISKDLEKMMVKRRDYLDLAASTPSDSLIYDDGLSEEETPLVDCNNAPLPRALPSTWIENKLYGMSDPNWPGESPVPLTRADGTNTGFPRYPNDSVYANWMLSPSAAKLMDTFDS

HCT116 = system: HCT116; set-up: method as in ref 14 (a number printed in a supplementary file, which may have a reference list of its own: not looked up in the article's list); settings: DB18[a], footnote not given; read-out: Cytotoxic studies IC50 HCT116; cited from earlier work
Human skin fibroblasts = system: Human skin fibroblasts; set-up: method as in ref 14 (a number printed in a supplementary file, which may have a reference list of its own: not looked up in the article's list); settings: DB18[a], footnote not given; read-out: Cytotoxic studies IC50 Fibroblasts; cited from earlier work

T2 sequence (P48729 whole entry): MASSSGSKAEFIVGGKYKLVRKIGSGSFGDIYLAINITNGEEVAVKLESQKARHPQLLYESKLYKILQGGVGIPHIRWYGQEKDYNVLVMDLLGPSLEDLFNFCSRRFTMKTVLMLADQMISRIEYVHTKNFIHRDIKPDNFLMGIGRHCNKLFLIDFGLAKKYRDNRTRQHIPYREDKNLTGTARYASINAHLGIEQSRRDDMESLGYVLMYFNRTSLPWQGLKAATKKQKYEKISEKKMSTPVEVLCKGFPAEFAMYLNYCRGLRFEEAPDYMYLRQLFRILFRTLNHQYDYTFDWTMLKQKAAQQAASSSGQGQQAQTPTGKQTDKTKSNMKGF
T1 sequence (P15056 whole entry V600E): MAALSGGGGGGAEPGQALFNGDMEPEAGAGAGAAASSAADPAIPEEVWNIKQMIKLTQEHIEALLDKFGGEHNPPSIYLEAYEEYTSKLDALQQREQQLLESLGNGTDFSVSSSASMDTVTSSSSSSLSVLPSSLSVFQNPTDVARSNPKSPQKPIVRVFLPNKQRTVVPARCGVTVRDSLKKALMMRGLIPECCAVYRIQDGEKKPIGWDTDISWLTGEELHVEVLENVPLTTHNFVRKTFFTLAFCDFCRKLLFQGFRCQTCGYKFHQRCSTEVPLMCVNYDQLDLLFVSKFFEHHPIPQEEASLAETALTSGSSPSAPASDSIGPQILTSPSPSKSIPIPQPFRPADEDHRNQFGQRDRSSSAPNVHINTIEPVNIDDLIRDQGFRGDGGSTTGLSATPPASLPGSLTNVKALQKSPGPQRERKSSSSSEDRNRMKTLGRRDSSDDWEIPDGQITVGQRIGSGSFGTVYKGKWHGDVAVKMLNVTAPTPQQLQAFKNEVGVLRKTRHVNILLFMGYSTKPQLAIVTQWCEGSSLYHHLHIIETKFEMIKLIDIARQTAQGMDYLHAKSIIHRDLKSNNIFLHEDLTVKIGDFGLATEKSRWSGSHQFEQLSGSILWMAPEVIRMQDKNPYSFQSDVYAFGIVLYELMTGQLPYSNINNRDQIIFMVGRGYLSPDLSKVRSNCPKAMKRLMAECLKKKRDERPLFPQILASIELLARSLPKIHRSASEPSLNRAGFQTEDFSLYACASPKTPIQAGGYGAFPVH

With `Cc1ccc(-n2cc(COc3cccc4cnc(Nc5cccc(Cl)c5)nc34)nn2)c([N+](=O)[O-])c1` [DB18] the remaining binding at 1 µM (BRAF(V600E)) was 96%, the remaining binding at 1 µM (CSNK1A1) was 94% and the remaining binding at 1 µM (EPHA1) was 95%. It also gave a remaining binding at 1 µM (EPHA5) of 100%, a remaining binding at 1 µM (ERK3) of 100% and a remaining binding at 1 µM (NEK1) of 100%. For the same compound, the remaining binding at 1 µM (PIM2) was 100%, the remaining binding at 1 µM (RET(V804M)) was 96% and the IC50 (HCT116) was over 25 µM. For the same compound, the IC50 (Human skin fibroblasts) was 21 µM.
